# Experimental data as given in US20200239530A1, “COMPOUNDS AND METHODS OF MODULATING PROTEIN DEGRADATION” (Vividion Therapeutics, Inc., priority 2017, published 2020).
# Legend:
# [1] = biological target: T1, RRP8 Ribosomal RNA-processing protein 8 (Homo sapiens, UniProt O43159); assay: Cysteine liganding, probe competition; format: binding
# T1 construct: Cells were resuspended in cold PBS on ice and sonicated with a probe sonicator to achieve lysis; endogenous in cells
# T1 sequence (O43159 1-456): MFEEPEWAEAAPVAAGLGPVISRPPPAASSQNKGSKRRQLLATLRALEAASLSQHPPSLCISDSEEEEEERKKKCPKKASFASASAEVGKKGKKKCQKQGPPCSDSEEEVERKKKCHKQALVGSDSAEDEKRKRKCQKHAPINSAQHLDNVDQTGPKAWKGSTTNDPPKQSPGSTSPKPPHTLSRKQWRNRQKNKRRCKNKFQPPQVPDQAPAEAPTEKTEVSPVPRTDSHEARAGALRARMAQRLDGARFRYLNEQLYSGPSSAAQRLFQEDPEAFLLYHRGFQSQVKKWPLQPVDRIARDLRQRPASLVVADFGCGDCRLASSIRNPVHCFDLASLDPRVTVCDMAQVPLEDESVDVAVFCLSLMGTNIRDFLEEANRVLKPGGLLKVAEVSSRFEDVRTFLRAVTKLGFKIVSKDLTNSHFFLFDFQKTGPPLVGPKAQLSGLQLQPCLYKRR
# Outline: (§1)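 Lysates from probe-sonicated cells in PBS (5 mg/ml proteome) were exposed to compound for 1 hr at 25° C, then labelled with desthiobiotin iodoacetamide probe (10 mM stock) for 1 hr at 25° C. Probe-tagged peptides were streptavidin-enriched after trypsin digestion.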
# [2] = biological target: T2, ALDH18A1 Delta-1-pyrroline-5-carboxylate synthase (Homo sapiens, UniProt P54886); assay: Cysteine liganding, probe competition; format: binding
# T2 construct: Cells were resuspended in cold PBS on ice and sonicated with a probe sonicator to achieve lysis; endogenous in cells
# T2 sequence (P54886 1-795): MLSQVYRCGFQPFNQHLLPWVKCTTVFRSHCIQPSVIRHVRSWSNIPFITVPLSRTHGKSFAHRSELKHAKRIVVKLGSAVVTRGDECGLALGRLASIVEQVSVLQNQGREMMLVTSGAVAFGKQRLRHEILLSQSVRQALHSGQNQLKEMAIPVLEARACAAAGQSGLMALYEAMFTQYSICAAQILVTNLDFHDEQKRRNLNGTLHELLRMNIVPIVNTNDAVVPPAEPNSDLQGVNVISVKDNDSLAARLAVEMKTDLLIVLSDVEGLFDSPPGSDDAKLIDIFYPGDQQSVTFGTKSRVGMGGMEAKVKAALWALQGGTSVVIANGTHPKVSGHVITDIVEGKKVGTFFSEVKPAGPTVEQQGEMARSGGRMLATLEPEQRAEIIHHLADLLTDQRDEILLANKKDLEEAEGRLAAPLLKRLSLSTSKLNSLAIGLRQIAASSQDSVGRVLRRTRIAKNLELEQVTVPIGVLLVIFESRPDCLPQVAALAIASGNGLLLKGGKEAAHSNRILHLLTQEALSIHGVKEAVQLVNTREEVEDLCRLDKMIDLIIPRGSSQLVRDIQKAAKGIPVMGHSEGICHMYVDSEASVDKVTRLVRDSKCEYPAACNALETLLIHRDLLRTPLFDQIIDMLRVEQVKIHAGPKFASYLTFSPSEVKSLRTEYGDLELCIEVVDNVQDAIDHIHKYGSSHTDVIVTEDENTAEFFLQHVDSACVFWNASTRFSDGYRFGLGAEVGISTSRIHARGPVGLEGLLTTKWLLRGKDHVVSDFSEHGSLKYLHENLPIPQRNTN
# Outline: as §1
Structure (SMILES),"Liganded ([1]; RRP8 Res# 451, uniprot O43159)","Liganded ([2]; ALDH18A1 Res# 612, uniprot P54886)",100 Max ([1]; uniprot O43159),100 ave ([1]; uniprot O43159),500 Max ([1]; uniprot O43159),500 ave ([1]; uniprot O43159),100 Max ([2]; uniprot P54886),100 ave ([2]; uniprot P54886),500 Max ([2]; uniprot P54886),500 ave ([2]; uniprot P54886)
COc1ccc2c(c1)CCCN2C(=O)CCl [KB02],YES,YES,,,,,,,,
O=C(CCl)Nc1cc(C(F)(F)F)cc(C(F)(F)F)c1 [KBO3],,,14.62,−3.99,57.64,48.93,34.21,13.91,66.31,66.23
